Measured values as given in patent publication US20120220603A1, “SUBSTITUTED HETEROCYCLIC DERIVATIVES FOR THE TREATMENT OF PAIN AND EPILEPSY” (ZALICUS PHARMACEUTICALS LTD., priority 2009, published 2012).

Columns and labels:
[1] = tested on: Rat SNL tactile allodynia; test: L5/L6 spinal nerve ligation (SNL) Chung pain model, tactile allodynia (von Frey); type: in vivo
Source text: The Spinal Nerve Ligation is an animal model representing peripheral nerve injury generating a neuropathic pain syndrome. In this model experimental animals develop the clinical symptoms of tactile allodynia and hyperalgesia. L5/L6 Spinal nerve ligation (SNL) injury was induced using the procedure of Kim and Chung (Kim et al., Pain 50:355-363 (1992)) in male Sprague-Dawley rats (Harlan; Indianapolis, Ind.) weighing 200 to 250 grams.
Anaesthesia was induced with 2% isofluorane in O2 at 2 L/min and maintained with 0.5% isofluorane in O2. Rats were then shaved and aseptically prepared for surgeries. A 2 cm paraspinal incision was made at the level of L4-S2. L4/L5 was exposed by removing the transverse process above the nerves with a small rongeur. The L5 spinal nerve is the larger of the two visible nerves below the transverse process and lies closest to the spine. The L6 spinal nerve is located beneath the corner of the slope bone. A home-made glass Chung rod was used to hook L5 or L6 and a pre-made slip knot of 4.0 silk suture was placed on the tip of the rod just above the nerve and pulled underneath to allow for the tight ligation. The L5 and L6 spinal nerves were tightly ligated distal to the dorsal root ganglion. The incision was closed, and the animals were allowed to recover for 5 days.
Sham control rats underwent the same operation and handling as the experimental animals, but without SNL.
Prior to initiating drug delivery, baseline behavioural testing data is obtained. At selected times after infusion of the Test or Control Article behavioural data can then be collected again.
The assessment of tactile allodynia consisted of measuring the withdrawal threshold of the paw ipsilateral to the site of nerve injury in response to probing with a series of calibrated von Frey filaments (innocuous stimuli). Animals were acclimated to the suspended wire-mesh cages for 30 min before testing. Each von Frey filament was applied perpendicularly to the plantar surface of the ligated paw of rats for 5 sec. A positive response was indicated by a sharp withdrawal of the paw. For rats, the first testing filament is 4.31. Measurements were taken before and after administration of test articles. […] The protocol was repeated until three changes in behaviour were determined (“up and down” method) (Chaplan et al., J. Neurosci. Methods 53:55-63 (1994)). The 50% paw withdrawal threshold was determined as (10^[Xf+kδ])/10,000, where Xf=the value of the last von Frey filament employed, k=Dixon value for the positive/negative pattern, and S=the logarithmic difference between stimuli. The cut-off values for rats were no less than 0.2 g and no higher than 15 g (5.18 filament); for mice no less than 0.03 g and no higher than 2.34 g (4.56 filament). A significant drop of the paw withdrawal threshold compared to the pre-treatment baseline is considered tactile allodynia. […]

[2] = biological target: T1, NaV1.7 channels expressed in HEK cells (Homo sapiens, UniProt Q15858); test: NaV1.7 voltage-clamp electrophysiological assay (enhancement of slow inactivation); type: cell-based
T1 construct: expressed in transfected cells; host or cells: HEK cells
T1 sequence (Q15858 whole entry): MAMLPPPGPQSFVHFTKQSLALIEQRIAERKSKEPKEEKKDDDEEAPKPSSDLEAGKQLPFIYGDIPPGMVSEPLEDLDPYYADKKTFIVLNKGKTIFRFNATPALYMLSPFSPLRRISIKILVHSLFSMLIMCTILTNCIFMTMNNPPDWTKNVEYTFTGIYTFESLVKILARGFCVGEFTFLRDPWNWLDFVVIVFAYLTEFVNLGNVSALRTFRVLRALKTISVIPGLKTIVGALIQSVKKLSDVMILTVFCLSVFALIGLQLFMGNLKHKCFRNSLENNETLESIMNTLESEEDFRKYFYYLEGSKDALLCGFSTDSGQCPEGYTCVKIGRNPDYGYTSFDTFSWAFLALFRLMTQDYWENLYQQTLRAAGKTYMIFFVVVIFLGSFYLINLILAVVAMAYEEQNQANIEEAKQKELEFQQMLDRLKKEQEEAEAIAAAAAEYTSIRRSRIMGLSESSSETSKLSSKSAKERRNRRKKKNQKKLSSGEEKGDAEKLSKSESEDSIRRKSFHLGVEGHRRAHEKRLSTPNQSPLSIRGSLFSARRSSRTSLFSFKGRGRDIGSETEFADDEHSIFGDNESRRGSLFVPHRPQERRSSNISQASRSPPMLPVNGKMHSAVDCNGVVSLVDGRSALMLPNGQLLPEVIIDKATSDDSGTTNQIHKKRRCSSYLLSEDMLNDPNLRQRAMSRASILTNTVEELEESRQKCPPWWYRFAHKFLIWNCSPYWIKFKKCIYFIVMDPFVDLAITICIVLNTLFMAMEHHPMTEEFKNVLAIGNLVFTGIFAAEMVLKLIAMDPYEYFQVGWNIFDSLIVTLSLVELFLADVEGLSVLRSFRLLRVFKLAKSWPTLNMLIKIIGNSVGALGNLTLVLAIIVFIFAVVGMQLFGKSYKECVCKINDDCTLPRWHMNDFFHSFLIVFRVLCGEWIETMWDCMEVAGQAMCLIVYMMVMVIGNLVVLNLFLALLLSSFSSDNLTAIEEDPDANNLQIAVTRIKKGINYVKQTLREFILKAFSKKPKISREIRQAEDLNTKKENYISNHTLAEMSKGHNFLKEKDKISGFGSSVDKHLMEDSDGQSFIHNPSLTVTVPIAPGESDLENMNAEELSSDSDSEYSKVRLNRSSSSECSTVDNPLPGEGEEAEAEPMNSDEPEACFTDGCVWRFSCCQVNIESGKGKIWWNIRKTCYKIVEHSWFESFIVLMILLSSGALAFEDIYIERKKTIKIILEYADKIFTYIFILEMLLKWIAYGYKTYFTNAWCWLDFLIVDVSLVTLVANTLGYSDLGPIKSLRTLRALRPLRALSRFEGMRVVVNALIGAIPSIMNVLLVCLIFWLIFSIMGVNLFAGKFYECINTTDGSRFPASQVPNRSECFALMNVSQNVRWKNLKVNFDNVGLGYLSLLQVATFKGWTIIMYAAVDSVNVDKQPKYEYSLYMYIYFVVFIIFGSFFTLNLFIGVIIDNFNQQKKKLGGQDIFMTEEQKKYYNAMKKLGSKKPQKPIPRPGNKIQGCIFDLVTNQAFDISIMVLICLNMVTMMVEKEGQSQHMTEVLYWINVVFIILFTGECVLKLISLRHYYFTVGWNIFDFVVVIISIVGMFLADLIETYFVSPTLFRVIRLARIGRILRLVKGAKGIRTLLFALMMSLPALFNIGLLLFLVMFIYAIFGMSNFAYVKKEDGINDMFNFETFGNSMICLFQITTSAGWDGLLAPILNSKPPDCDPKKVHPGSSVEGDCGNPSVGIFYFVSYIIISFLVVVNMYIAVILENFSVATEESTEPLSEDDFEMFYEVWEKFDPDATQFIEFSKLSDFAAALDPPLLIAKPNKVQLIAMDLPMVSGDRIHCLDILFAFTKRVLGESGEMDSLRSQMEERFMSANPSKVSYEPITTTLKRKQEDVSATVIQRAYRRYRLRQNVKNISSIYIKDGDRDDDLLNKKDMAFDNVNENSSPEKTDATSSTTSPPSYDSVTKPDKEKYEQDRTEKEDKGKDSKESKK
Experimental: To examine the effects of compounds on enhancement of slow inactivation of NaV1.7 and NaV1.8 channels expressed in HEK cells the culture media was replaced with an extracellular solution containing (in mM): 137 NaCl, 4 KCl, 1.8 CaCl2, 1 MgCl2, 10 HEPES, 10 glucose, pH adjusted to 7.4 with NaOH. The intracellular solution contained (in mM): 130 KCl, 1 MgCl2, 5 EGTA, 10 HEPES, 5 K2ATP, adjusted to pH 7.3 with KOH. Whole-cell recordings, preparation and application of test compounds were performed in a similar manner to the CaV3.2 electrophysiological assays. Voltage protocols were applied to quantify the effects of test compounds to enhance slow inactivation for NaV1.7 and NaV1.8.

[3] = Rat Early Pharmacokinetic (EPK) study; type: in vivo; conditions: PO, 30 mg/kg, formulation 10% DMSO/90% CMC; for Tmax: male, Sprague-Dawley, blood
Experimental: Male Sprague-Dawley rats were dosed via oral (PO) gavage in the detailed formulation. Blood samples were collected from the animals at 6 timepoints out to 4 hours post-dose. Pharmacokinetic analysis was performed on the LC-MS/MS measured concentrations for each timepoint of each compound.

[4] = biological target: T2, CaV3.2 T-type Ca2+ channels expressed in HEK cells (Homo sapiens, UniProt O95180); test: CaV3.2 voltage-clamp electrophysiological assay (fast and slow inactivation); type: cell-based
T2 construct: expressed in transfected cells; host or cells: HEK cells
T2 sequence (O95180 whole entry): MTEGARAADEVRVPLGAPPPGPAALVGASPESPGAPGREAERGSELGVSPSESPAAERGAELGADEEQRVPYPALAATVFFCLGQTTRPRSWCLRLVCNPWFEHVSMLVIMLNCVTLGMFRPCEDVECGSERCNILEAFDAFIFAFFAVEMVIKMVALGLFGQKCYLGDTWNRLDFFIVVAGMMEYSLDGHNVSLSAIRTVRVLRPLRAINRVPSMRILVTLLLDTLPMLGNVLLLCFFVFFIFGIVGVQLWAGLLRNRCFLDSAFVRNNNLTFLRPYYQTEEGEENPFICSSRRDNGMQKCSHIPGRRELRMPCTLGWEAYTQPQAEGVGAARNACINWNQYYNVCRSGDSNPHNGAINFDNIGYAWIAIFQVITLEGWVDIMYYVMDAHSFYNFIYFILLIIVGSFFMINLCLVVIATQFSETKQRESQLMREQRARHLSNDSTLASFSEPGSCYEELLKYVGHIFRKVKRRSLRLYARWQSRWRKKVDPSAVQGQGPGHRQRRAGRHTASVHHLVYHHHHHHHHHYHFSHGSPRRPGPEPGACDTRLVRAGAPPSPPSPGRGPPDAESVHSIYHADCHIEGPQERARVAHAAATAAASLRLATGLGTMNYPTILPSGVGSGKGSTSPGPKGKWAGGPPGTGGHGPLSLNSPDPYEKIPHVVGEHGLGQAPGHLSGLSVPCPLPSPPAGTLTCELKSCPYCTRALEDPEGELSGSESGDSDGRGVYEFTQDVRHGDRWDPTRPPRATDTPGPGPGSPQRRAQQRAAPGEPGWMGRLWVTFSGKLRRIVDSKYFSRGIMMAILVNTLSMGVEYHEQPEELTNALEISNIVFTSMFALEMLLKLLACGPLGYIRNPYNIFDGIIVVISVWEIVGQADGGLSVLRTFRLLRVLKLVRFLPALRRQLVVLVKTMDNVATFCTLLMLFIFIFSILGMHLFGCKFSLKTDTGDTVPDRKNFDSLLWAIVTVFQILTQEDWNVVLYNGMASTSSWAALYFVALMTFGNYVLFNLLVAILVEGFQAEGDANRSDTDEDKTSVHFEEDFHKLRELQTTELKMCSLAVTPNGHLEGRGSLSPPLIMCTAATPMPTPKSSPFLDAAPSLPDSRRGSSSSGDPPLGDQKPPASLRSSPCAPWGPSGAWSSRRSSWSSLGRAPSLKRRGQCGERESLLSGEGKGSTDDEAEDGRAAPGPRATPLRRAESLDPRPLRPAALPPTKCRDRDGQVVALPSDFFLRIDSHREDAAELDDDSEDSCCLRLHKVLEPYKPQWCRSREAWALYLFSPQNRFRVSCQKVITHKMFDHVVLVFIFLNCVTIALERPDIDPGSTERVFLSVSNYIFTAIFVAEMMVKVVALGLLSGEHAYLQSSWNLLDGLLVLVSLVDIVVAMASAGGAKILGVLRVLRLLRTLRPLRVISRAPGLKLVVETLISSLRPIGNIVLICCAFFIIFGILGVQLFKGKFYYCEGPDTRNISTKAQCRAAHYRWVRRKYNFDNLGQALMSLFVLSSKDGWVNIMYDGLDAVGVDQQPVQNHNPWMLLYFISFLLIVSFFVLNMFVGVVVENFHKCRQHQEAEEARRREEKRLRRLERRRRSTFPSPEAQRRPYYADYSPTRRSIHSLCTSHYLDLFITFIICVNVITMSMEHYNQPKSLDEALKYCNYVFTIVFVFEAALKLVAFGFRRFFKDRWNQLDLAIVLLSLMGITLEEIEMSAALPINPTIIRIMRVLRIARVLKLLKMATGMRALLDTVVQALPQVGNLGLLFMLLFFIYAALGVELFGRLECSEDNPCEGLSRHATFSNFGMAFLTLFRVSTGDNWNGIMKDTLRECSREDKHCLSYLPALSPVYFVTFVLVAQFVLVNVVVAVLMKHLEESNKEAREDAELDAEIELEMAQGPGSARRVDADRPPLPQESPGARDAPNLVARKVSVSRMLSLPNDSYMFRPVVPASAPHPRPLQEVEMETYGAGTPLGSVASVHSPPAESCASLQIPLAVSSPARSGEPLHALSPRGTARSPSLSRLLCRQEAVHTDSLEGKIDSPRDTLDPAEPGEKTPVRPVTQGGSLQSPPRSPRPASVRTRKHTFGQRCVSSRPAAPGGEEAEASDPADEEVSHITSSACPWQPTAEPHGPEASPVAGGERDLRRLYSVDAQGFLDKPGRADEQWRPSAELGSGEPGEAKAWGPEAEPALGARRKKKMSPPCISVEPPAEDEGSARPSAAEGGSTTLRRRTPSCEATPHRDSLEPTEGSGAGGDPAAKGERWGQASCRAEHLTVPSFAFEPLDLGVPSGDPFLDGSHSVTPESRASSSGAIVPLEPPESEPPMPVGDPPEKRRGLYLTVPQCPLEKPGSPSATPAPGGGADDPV
Source text: Prior to recording currents from CaV3.2 T-type Ca^2+ channels expressed in HEK cells, the culture media was replaced with extracellular solution (ECS) containing (in mM): 142 CsCl, 10 D-glucose, 2 CaCl2, 1 MgCl2, 10 HEPES, pH adjusted to 7.4 with CsOH. Borosilicate glass patch pipettes, pulled on a P-97 micropipette puller (Sutter Instruments, Novato, Calif.) with typical resistances of 2-4 MW, were backfilled with intracellular solution containing (in mM): 126.5 Cs-methanesulphonate, 2 MgCl2, 10 HEPES, 11 EGTA, 2 Na-ATP, pH adjusted to 7.3 CsOH. […] were recorded in the whole-cell configuration at room temperature (˜21° C.) using an Axopatch 200B (Molecular Devices, Sunnyvale, Calif.) patch-clamp amplifier. Recordings were low-pass filtered at 1 kHz (−3 dB 4-pole Bessel filter), digitized at 2 kHz with a Digidata 1322A interface (Molecular Devices), and acquired using pClamp 9.2 (Molecular Devices). No leak subtraction was used. Test compounds, prepared as 30 mM stock solutions in DMSO and diluted in extracellular buffer, were applied through a gravity driven multi-barrelled array of capillaries (24 gauge) connected to reservoirs controlled by solenoid valves. The effects of compounds on CaV3.2 slow and fast inactivation were evaluated using four different voltage protocols. The voltage dependence of fast and slow channel inactivation was examined using a two pulse protocol. Data were analyzed and fitted using OriginPro v.7.5 (OriginLab, Northampton, Mass.) software.

[5] = tested on: Lamina I/II spinal cord neurons; test: Lamina assay: current-clamp recordings on lamina I/II spinal cord neurons; type: cell-based, rat; conditions: Lamina I and II, tonic firing neurons, current-clamp
Source text: Male Wistar rats (P6 to P9 for voltage-clamp and P15 to P18 for current-clamp recordings) were anaesthetized through intraperitoneal injection of Inactin (Sigma). The spinal cord was then rapidly dissected out and placed in an ice-cold solution protective sucrose solution containing (in mM): 50 sucrose, 92 NaCl, 15 D-Glucose, 26 NaHCO3, 5 KCl, 1.25 NaH2PO4, 0.5 CaCl2, 7 MgSO4, 1 kynurenic acid, and bubbled with 5% CO2/95% O2. The meninges, dura, and dorsal and ventral roots were then removed from the lumbar region of the spinal cord under a dissecting microscope. The “cleaned” lumbar region of the spinal cord was glued to the vibratome stage and immediately immersed in ice cold, bubbled, sucrose solution. For current-clamp recordings, 300 to 350 μm parasagittal slices were cut to preserve the dendritic arbour of lamina I neurons, while 350 to 400 μm transverse slices were prepared for voltage-clamped […] channel recordings. Slices were allowed to recover for 1 hour at 35° C. in Ringer solution containing (in mM): 125 NaCl, 20 D-Glucose, 26 NaHCO3, 3 KCl, 1.25 NaH2PO4, 2 CaCl2, 1 MgCl2, 1 kynurenic acid, 0.1 picrotoxin, bubbled with 5% CO2/95% O2. The slice recovery chamber was then returned to room temperature (20 to 22° C.) and all recordings were performed at this temperature.
Neurons were visualized using IR-DIC optics (Zeiss Axioskop 2 FS plus, Gottingen, Germany), and neurons from lamina I and the outer layer of lamina II were selected based on their location relative to the substantia gelatinosa layer. Neurons were patch-clamped using borosilicate glass patch pipettes with resistances of 3 to 6 MΩ. Current-clamp recordings of lamina I/II neurons in the intact slice, the external recording solution was the above Ringer solution, while the internal patch pipette solution contained (in mM): 140 KGluconate, 4 NaCl, 10 HEPES, 1 EGTA, 0.5 MgCl2, 4 MgATP, 0.5 Na2GTP, adjusted to pH 7.2 with 5 M KOH and to 290 mOsm with D-Mannitol (if necessary). Only tonic firing neurons were selected for current-clamp experiments, while phasic, delayed onset and single spike neurons were discarded (22). Recordings were digitized at 50 kHz and low-pass filtered at 2.4 kHz.

mice on rotarod = test: Mouse rotarod assay (minimal muscular or neurological impairment); type: in vivo
Experimental: To assess a compound's undesirable side effects (toxicity), animals were monitored for overt signs of impaired neurological or muscular function. In mice, the rotarod procedure (Dunham and Miya, J. Am. Pharmacol. Assoc. 46:208-209 (1957)) is used to disclose minimal muscular or neurological impairment (MMI). When a mouse is placed on a rod that rotates at a speed of 6 rpm, the animal can maintain its equilibrium for long periods of time. The animal is considered toxic if it falls off this rotating rod three times during a 1-min period.

[6] = tested on: seizures induced by 6 Hz corneal stimulation in CF1 mice; test: 6 Hz psychomotor seizure model of partial epilepsy; type: in vivo, mouse; set-up: Epilepsy 6 Hz (% protected): concentration or dose not given beside the values; conditions: 32 mA
Experimental: Compounds were evaluated for the protection against seizures induced by a 6 Hz, 0.2 ms rectangular pulse width of 3 s duration, at a stimulus intensity of 32 mA (CC97) applied to the cornea of male CF1 mice (20-30 g) according to procedures described by Barton et al, “Pharmacological Characterization of the 6 Hz Psychomotor Seizure Model of Partial Epilepsy,” Epilepsy Res. 47(3):217-27 (2001). Seizures are characterised by the expression of one or more of the following behaviours: stun, forelimb clonus, twitching of the vibrissae and Straub-tail immediately following electrical stimulation.

[7] = voltage-dependence of half inactivation, HEK cells, whole-cell

## O=C1CN(C(=O)CNc2cc(F)cc(C(F)(F)F)c2)CCN1 [Compound 11, 4-(2-(3-fluoro-5-(trifluoromethyl)phenylamino)acetyl)piperazin-2-one]
[1]; 1 hour
  Rat SNL Tactile Allodynia (% Antiallodynia): 9%
[1]; 2 hours
  Rat SNL Tactile Allodynia (% Antiallodynia): 4%
[1]; 4 hours
  Rat SNL Tactile Allodynia (% Antiallodynia): 1%

## O=C(NCCN1CCNCC1=O)c1cc(F)cc(C(F)(F)F)c1 [Compound 23, 3-fluoro-N-(2-(2-oxopiperazin-1-yl)ethyl)-5-(trifluoromethyl)benzamide]
[2]; concentration tested 30 μM
  Fraction current remaining: 0.91

## CC1(C)CN(CC(=O)Nc2cc(C(F)(F)F)cc(C(F)(F)F)c2)C(=O)CN1 [Compound 13, N-(3,5-bis(trifluoromethyl)phenyl)-2-(5,5-dimethyl-2-oxopiperazin-1-yl)acetamide]
[3]
  Dose Normalized AUC: 458 nM·h
  Dose Normalized Cmax: 172 nM
  Tmax: 40.2 min
[1]; 1 hour
  Rat SNL Tactile Allodynia (% Antiallodynia): 16%
[1]; 2 hours
  Rat SNL Tactile Allodynia (% Antiallodynia): 8%
[1]; 4 hours
  Rat SNL Tactile Allodynia (% Antiallodynia): 5%
[1]; at 60 minutes compared to baseline and post-SNL
  Anti-allodynia in rat SNL tactile allodynia (in words): significant anti-allodynia

## O=C(CN1CCNCC1=O)NCc1cc(C(F)(F)F)cc(C(F)(F)F)c1 [Compound 20, N-(3,5-bis(trifluoromethyl)benzyl)-2-(2-oxopiperazin-1-yl)acetamide]
[2]; concentration tested 30 μM
  Fraction current remaining: 0.87

## O=C1CNCCN1C(=O)CNc1cc(F)cc(F)c1 [Compound 3, 1-(2-(3,5-difluorophenylamino)acetyl)piperazin-2-one]
[1]; 1 hour
  Rat SNL Tactile Allodynia (% Antiallodynia): 1%
[1]; 4 hours
  Rat SNL Tactile Allodynia (% Antiallodynia): 4%

## O=C(CN1CCNCC1=O)Nc1cc(F)c(F)cc1F [Compound 2, 2-(2-oxopiperazin-1-yl)-N-(2,4,5-trifluorophenyl)acetamide]
[4]; 5.1 s interval
  Fraction of current recovered at 5.1 s interval: 0.98
[4]; at −40 mV
  Fraction current remaining at −40 mV: 0.58
[4]; [7]
  V1/2 fast inactivation: −65 mV
  V1/2 slow inactivation: −80 mV

## O=C(CC1CCNCC1)Nc1cc(C(F)(F)F)cc(C(F)(F)F)c1 [Compound 19, N-(3,5-bis(trifluoromethyl)phenyl)-2-(piperidin-4-yl)acetamide]
[5]
  % Spike Change (Mean; % change from control): −30.3%
[1]; 1 hour
  Rat SNL Tactile Allodynia (% Antiallodynia): 47%
[1]; 2 hours
  Rat SNL Tactile Allodynia (% Antiallodynia): 39%
[1]; 4 hours
  Rat SNL Tactile Allodynia (% Antiallodynia): 32%
Mice on rotarod; 0.25 hr
  % Impaired: 0%
Mice on rotarod; 0.5 hr
  % Impaired: 75%
Mice on rotarod; 1 hr
  % Impaired: 100%
Mice on rotarod; 2 hr
  % Impaired: 100%
Mice on rotarod; 4 hr
  % Impaired: 100%
[6]; 0.25 hr
  Epilepsy 6 Hz (% protected): 100%
[6]; 0.5 hr
  Epilepsy 6 Hz (% protected): 100%
[6]; 1 hr
  Epilepsy 6 Hz (% protected): 100%
[6]; 2 hr
  Epilepsy 6 Hz (% protected): 100%
[6]; 4 hr
  Epilepsy 6 Hz (% protected): 0%

## CC1(C)C(=O)NCCN1C(=O)CNc1cc(C(F)(F)F)cc(C(F)(F)F)c1 [Compound 12, 4-(2-(3,5-bis(trifluoromethyl)phenylamino)acetyl)-3,3-dimethylpiperazin-2-one]
[1]; 1 hour
  Rat SNL Tactile Allodynia (% Antiallodynia): 9%
[1]; 2 hours
  Rat SNL Tactile Allodynia (% Antiallodynia): 11%
[1]; 4 hours
  Rat SNL Tactile Allodynia (% Antiallodynia): 42%

## O=C1CN(C(=O)CNc2cc(C(F)(F)F)cc(C(F)(F)F)c2)CCN1 [Compound 10, 4-(2-(3,5-bis(trifluoromethyl)phenylamino)acetyl)piperazin-2-one]
[3]
  Dose Normalized AUC: 1,192 nM*h
  Dose Normalized Cmax: 355 nM
  Tmax: 72 min
[1]; 1 hour
  Rat SNL Tactile Allodynia (% Antiallodynia): 10%
[1]; 2 hours
  Rat SNL Tactile Allodynia (% Antiallodynia): 13%
[1]; 4 hours
  Rat SNL Tactile Allodynia (% Antiallodynia): 15%
[2]; concentration tested 10 μM
  Fraction current remaining: 0.91
[2]; concentration tested 100 μM
  Fraction current remaining: 0.74
